Consider 15 molecules from BindingDB's records for patent US11583538 (Venenum Biodesign, 2023).

Usually IC50 stands for the midpoint of a concentration-inhibition curve. A high value points to a need for much substance.

The assay deals with T1, Three-prime repair exonuclease 1 (Homo sapiens, UniProt Q9NSU2).
T1 sequence (Q9NSU2 whole entry): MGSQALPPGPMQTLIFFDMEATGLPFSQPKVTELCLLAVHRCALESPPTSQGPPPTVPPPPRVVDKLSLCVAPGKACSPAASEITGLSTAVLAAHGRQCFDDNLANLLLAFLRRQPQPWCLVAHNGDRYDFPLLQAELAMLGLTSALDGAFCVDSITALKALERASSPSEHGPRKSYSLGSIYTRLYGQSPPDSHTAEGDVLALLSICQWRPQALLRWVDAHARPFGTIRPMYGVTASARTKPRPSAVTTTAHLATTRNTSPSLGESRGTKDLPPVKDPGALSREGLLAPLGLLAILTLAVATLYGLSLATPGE
The experiment in a line: TREX1 Exonuclease Assay. As for the experimental part:
For human TREX1, the nucleotide sequence of the gene construct was codon optimized for expression in the bacterial host. The sequence was incorporated into the pMAL-c5e vector (NEB) downstream of a solubility-promoting MBP (maltose binding protein) fusion partner. The fusion protein product was expressed in E. coli strain BL21 (DE3) (Millipore) and purified in a series of chromatographic steps. Initial steps were conducted using a dextrin sepharose affinity column followed by a Q-sepharose ion exchange column (both GE Healthcare). After the second column the MBP partner was removed by incubation with enterokinase (NEB). Further purification was carried out with the second application of a Q-sepharose column followed by a Superdex 75 (GE Healthcare) size exclusion column. Finally, a heparin sepharose column (GE Healthcare) was applied to remove contaminating nucleotides. […] Next, 4 μL of human TREX1 (0.5 nM), or murine TREX1 (1 nM), diluted in assay buffer (20 mM Tris pH 7.5, 5 mM MgCl, 100 μg/mL BSA, 0.002% Triton X-100, 2 mM DTT), was added to the assay plate. After incubating for 30 minutes, 4 μL of labeled DNA oligonucleotide (500 nM) in assay buffer was added to initiate TREX1 exonuclease activity. The reaction was allowed to proceed for 45 minutes at room temperature prior to the addition of 4 μL of 150 mM EDTA to halt TREX1 activity.
With `N[C@@H]1C[C@H]2C(=O)N([C@H](CCC(=O)NO)C(=O)NCc3ccc(Cl)c(Cl)c3)CCC(COc3cccc(F)c3)N2C1` (stereo not given in full) [US11583538, Example 114], the IC50 is less than 1 µM.

As for `CC(C)C[C@H](C(=O)NCc1ccc(Cl)c(Cl)c1)N1CCC(C[S+]([O-])c2ccccc2)N2C[C@H](N)C[C@H]2C1=O` (stereo not given in full) [US11583538, Example 125A], the IC50 is less than 1 µM. The molecule `N[C@@H]1C[C@H]2C(=O)N([C@@H]3CCCN(S(=O)(=O)c4ccc(Cl)c(Cl)c4)C3)CCC(CCc3ccccc3)N2C1` (stereo not given in full) [US11583538, Example 83] showed an IC50 of less than 1 µM. Molecule `N[C@@H]1C[C@H]2C(=O)N([C@H](CCC(=O)O)C(=O)NCc3ccc(Cl)c(Cl)c3)CCC(COc3ccccc3F)N2C1` (stereo not given in full) [US11583538, Example 79] had an IC50 of less than 1 µM.

In turn, `N[C@@H]1C[C@H]2C(=O)N([C@H](CS(=O)(=O)c3ccccc3O)C(=O)NCc3ccc(Cl)c(Cl)c3)CCC(CCc3ccccc3)N2C1` (stereo not given in full) [US11583538, Example 124] registered an IC50 of less than 1 µM. Regarding `N[C@@H]1C[C@H]2C(=O)N([C@H](CCC(=O)O)C(=O)NCc3cc(Cl)c(Cl)c[n+]3[O-])CCC(CCc3ccccc3)N2C1` (stereo not given in full) [US11583538, Example 134], the IC50 was less than 1 µM. `CCOC(=O)CC[C@H](C(=O)NCc1ccc(Cl)c(Cl)c1F)N1CCC(CCc2ccccc2)N2C[C@H](N)C[C@H]2C1=O` (stereo not given in full) [US11583538, Example 93] showed an IC50 of less than 1 µM. As for `N[C@@H]1C[C@H]2C(=O)N([C@H](CCC(=O)O)C(=O)NCc3ccc(Cl)c(Cl)c3)CCC(COc3cccc(F)c3)N2C1` (stereo not given in full) [US11583538, Example 77], the IC50 is less than 1 µM. Consider `N[C@@H]1C[C@H]2C(=O)N([C@@H](CCC(=O)O)C(=O)NCc3ccc(Cl)c(Cl)c3)CCC(CCc3ccccc3)N2C1` (stereo not given in full) [US11583538, Example 29], for which the IC50 was less than 1 µM.

With `N[C@@H]1C[C@H]2C(=O)N([C@H](CCNC(=O)C3CC3)C(=O)NCc3ccc(Cl)c(Cl)c3)CCC(CCc3ccccc3)N2C1` (stereo not given in full) [US11583538, Example 130], the IC50 is less than 1 µM. Consider `COC(=O)CC[C@H](C(=O)NCc1ccc(Cl)c(Cl)c1)N1CCC(COc2cccc(F)c2)N2C[C@H](N)C[C@H]2C1=O` (stereo not given in full) [US11583538, Example 90], for which the IC50 is less than 1 µM. Take `CC(C)C[C@H](CNS(=O)(=O)c1ccc(Cl)c(Cl)c1)N1CCC(CCc2ccccc2)N2C[C@H](N)C[C@H]2C1=O` (stereo not given in full) [US11583538, Example 81]: the IC50 is less than 1 µM. Turning to `COC(=O)CC[C@H](C(=O)NCc1ccc(Cl)c(Cl)c1)N1CCC(COc2ccc(F)cc2)N2C[C@H](N)C[C@H]2C1=O` (stereo not given in full) [US11583538, Example 91], the IC50 is less than 1 µM. Regarding `CCOC(=O)CC[C@H](C(=O)NCc1ccc(Cl)c(Cl)n1)N1CCC(CCc2ccccc2)N2C[C@H](N)C[C@H]2C1=O` (stereo not given in full) [US11583538, Example 95], the IC50 was less than 1 µM.

`N[C@@H]1C[C@H]2C(=O)N([C@H](CSc3ccccc3O)C(=O)NCc3ccc(Cl)c(Cl)c3)CCC(CCc3ccccc3)N2C1` (stereo not given in full) [US11583538, Example 123]: the IC50 was less than 1 µM.
